{"source": "patent US9161944B2", "about": "“Method for preventing cancer metastasis” (INSERM (INSTITUT NATIONAL DE LA SANTE ET DE LA SANTE ET DE …, priority 2010, dated 2015)", "key": {"[1]": {"tested_on": "MDA-MB-435s cells expressing luciferase", "experiment": "Experimental metastasis model, cells injected into tail vein, BLI", "type": "in vivo, NMRI nude mice", "procedure": "Female NMRI nude mice, 6 weeks old, were purchased from Janvier laboratories. Mice were bred and housed at INSERM, U892, University of Nantes, under the animal care license no 44565.\nMDA-MB-435s were incubated with 1 μM JPH1701 or with 2% DMSO/3% ethanol (vehicle) during 24 h and injected (0.75 106) in iv into the lateral tail vein. Next, mice were treated three times a week for 12 weeks with JPH1701 at 15 mg/kg in i.v. or with vehicle.\nAll of the mice were assessed weekly using whole-body bioluminescent imaging to quantify relative amounts of metastasis burden (ΦImageur™; BIOSPACE Lab, France). Each mouse was given potassium salt of D-luciferin (Interchim) at dose of 150 mg/kg body weight by intraperitoneal injection and anesthetized with Ketamin/xylasin i.p. injection. […] Regions of interest were drawn around the experimental metastases. The amount of metastasis burden within each region of interest was quantified as the relative amount of light produced from the luciferase activity in breast cancer cells and expressed in cpm using the Photovision+ software (version 1.3; Biospace Lab). At necropsy, ex vivo BLI measurement were performed for each tissues collected.\nTo determine whether a SK3/KCa2.3 blocker such as JPH1701 could prevent metastasis development, we used a model of experimental metastasis with MDA-MB-435s cells expressing the firefly luciferase gene. Cancer cells were injected directly to the systemic circulation into the vein tail. One cohort of mice was treated with JPH1701 three times a week for 12 weeks by i.v. administration. Another cohort was treated with the vehicle in the same conditions. At the end of treatment, metastases were visualized in vivo by bioluminescence imaging (BLI) in 70% (7/10) of control mice and only in 40% (4/10) of JPH1701 treated-mice (Table 4). To go further, mice were sacrificed and detection of metastases in different tissues was performed ex vivo by BLI. The number of positive tissues from each cohort was show in Table 4. Metastatic lesions were detected in all vehicle-treated mice."}, "PAF receptor": {"target": "PAF receptor (Homo sapiens, UniProt P25105)", "sequence (P25105 whole entry)": "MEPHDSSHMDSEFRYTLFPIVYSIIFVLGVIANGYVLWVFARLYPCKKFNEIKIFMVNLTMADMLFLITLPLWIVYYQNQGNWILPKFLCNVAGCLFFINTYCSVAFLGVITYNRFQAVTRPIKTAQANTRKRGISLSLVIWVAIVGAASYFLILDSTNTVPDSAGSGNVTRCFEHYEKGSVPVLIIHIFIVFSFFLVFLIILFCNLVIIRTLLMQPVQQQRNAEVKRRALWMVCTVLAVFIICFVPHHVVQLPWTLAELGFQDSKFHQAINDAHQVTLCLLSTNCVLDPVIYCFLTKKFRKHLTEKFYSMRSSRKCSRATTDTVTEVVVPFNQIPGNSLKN", "experiment": "3H-C16-PAF binding, membrane homogenates of CHO cells", "design": "expressed in transfected cells; host or cells: CHO cells (membrane homogenates)", "conditions": "0.3 and 2 μM, FIG. 11A", "procedure": "FIG. 11: Effects of JPH1701 on PAF receptor, PLC and PKCs activities. FIG. 11A) Histogram showing the percentage of control specific binding of 3H-C16-PAF to recombinant PAF receptor obtained from membrane homogenates of CHO cells by 0.3 and 2 μM edelfosine and by 0.3 and 2 μM JPH1701. FIG. 11B) Histogram showing the percentage of control agonist response (% effect i.e: increase of intracellular calcium concentration) of 0.3 and 2 μM edelfosine and JPH1701 on PAF receptor normalized to the response induced by 100 nM C16-PAF. […] FIG. 11C-D) Dose responses curves showing the effect of JPH1701 on PKCs (FIG. 11C, PKCs are: alpha, Beta 1, Beta 2, Gamma, Delta, Epsilon, Zeta, Eta, Theta, Iota) and PhosphoLipase C (PLC) activities (FIG. 11D)."}, "SKCa channel": {"tested_on": "SKCa channel", "experiment": "125I-apamin binding, membrane homogenates of cerebral cortex", "conditions": "0.3 and 2 μM, FIG. 8E", "procedure": "FIG. 8: Effect of JPH1701 on SK3 channel activity. […] Results are expressed as the mean±S.E.M. FIG. 8C) Histograms showing the effect of racemic hexadecyloxy-2-O-methyl-sn-glycerol-lactose (JPH 1701 or Ohmline, i.e: JPH1701 in the example) mixture and of both enantiomers (R-JPH1701 and S-JPH1701) on SK3 activity. The percentages of inhibition represent the ratio (SK3 current amplitude and chord conductance (in the presence of 10 μM JPH1701)/SK3 current amplitude in control experiments). Black bars show current at 0 mV and grey bars indicate the chord conductance. FIG. 8D) Dose-response effect of the form + of JPH1701 (concentrations: 0 (control), 0.3, 1 and 10 μM). Columns, mean, bars, SEM, (5 cells for racemic mix and 4 cells for + and − forms). FIG. 8E) Histogram showing the % of control specific binding of ^125I-Apamin ([…]) to SKCa channel obtained from membrane homogenates of cerebral cortex by 0.3 and 2 μM JPH1701.\nTo investigate whether JPH1701 interacts with the apamin binding site, 125I-apamin binding studies were performed."}, "MDA-MB-435s": {"tested_on": "MDA-MB-435s", "experiment": "Cytotoxicity / cell viability (MTT, tetrazolium salt reduction)"}, "SK2": {"target": "T1, SK2 (Homo sapiens, UniProt Q9H2S1)", "T1 construct": "expressed in transfected cells; host or cells: HEK293", "T1 sequence (Q9H2S1 whole entry)": "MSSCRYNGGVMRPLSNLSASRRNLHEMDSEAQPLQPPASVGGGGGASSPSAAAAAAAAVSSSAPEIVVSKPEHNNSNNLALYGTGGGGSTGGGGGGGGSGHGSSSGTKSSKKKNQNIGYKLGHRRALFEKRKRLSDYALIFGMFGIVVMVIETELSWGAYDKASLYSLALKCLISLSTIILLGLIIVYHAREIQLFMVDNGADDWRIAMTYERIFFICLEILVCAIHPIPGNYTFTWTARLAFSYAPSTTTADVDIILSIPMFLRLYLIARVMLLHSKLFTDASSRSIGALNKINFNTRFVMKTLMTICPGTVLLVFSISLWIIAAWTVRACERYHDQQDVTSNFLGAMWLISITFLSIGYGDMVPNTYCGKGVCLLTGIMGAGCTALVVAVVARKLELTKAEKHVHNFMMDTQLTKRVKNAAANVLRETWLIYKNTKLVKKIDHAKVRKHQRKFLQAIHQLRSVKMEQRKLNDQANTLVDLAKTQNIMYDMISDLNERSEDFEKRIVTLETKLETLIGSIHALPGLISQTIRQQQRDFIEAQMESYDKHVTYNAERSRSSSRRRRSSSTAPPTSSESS", "experiment": "Whole-cell K+ currents in HEK293 cells expressing recombinant SK2", "type": "cell-based", "conditions": "10 μM, FIG. 9B", "procedure": "FIG. 9. Selectivity effect of JPH1701 on SKCa subtype and on IKCa channels. FIG. 9A) Example of whole-cell K^+ currents recorded in HEK293 cells expressing recombinants SK1, SK2, SK3 and IKCa channels before and after application of 10 μM JPH1701 (upper graphs: SK1 and SK2 respectively, bottom graphs: SK3 and IKCa respectively). Currents were generated by ramp protocol from −100 mV to +60 mV in 500 ms from a constant holding of 0 mV and with a pCa 6. FIG. 9B) Histograms showing the effect of 10 μM JPH1701 on SKCa (SK1, SK2, SK3) and IKCa current amplitudes recorded at 0 mV. […] For each channel (SK1, SK2, SK3 and IKCa) the left column (pale grey) represents the control result and the right column (dark grey) represents the result after JPH1701 application.\nThe selectivity of JPH1701 toward the others members of the SKCa/IKCa channels was tested. […] The experimental protocol was similar to the one used in FIG. 8. JPH1701 was tested for membrane potential from +60 mV to −100 mV on 500 msec."}, "[2]": {"conditions": "15 mg/kg i.v. three times a week, 12 weeks, N = 10"}, "[3]": {"conditions": "15 mg/kg i.v., 12 weeks, N = 10"}}, "data": [{"substance": "hexadecyloxy-2-O-methyl-sn-glycerol-lactose [JPH1701]", "values": [{"measurement": "Adverse effects in mice", "setting": "[1]; 15 mg/kg i.v. three times a week for 12 weeks", "result": "No adverse effects"}, {"measurement": "Number of mice with experimental metastases detected ex vivo by BLI", "setting": "[1]; [2]", "result": 7}, {"measurement": "Number of mice with experimental metastases detected in vivo by BLI", "setting": "[1]; [2]", "result": 4}, {"measurement": "Mice with no sign of metastasis development ex vivo", "setting": "[1]; 15 mg/kg i.v., 12 weeks", "result": 30, "unit": "%"}, {"measurement": "Number of tissues with metastases detected by BLI: column", "setting": "[1]; [3]", "result": 2}, {"measurement": "Number of tissues with metastases detected by BLI: kidney", "setting": "[1]; [3]", "result": 0}, {"measurement": "Number of tissues with metastases detected by BLI: leg", "setting": "[1]; [3]", "result": 3}, {"measurement": "Number of tissues with metastases detected by BLI: liver", "setting": "[1]; [3]", "result": 0}, {"measurement": "Number of tissues with metastases detected by BLI: lung", "setting": "[1]; [3]", "result": 5}, {"measurement": "Number of tissues with metastases detected by BLI: lymph node", "setting": "[1]; [3]", "result": 1}, {"measurement": "Number of tissues with metastases detected by BLI: ovary/uterus", "setting": "[1]; [3]", "result": 0}, {"measurement": "Number of tissues with metastases detected by BLI: spleen", "setting": "[1]; [3]", "result": 0}, {"measurement": "Mice with metastases visualized in vivo by BLI at the end of treatment", "setting": "[1]; 15 mg/kg i.v., 12 weeks, control 70%", "result": 40, "unit": "%"}, {"measurement": "Metastatic profile", "setting": "[1]; FIGS. 10A-D", "result": "shifted the metastatic profile toward a less one"}, {"measurement": "Additional wait until 75% of mice present detectable metastases (vehicle: week 4)", "setting": "[1]; mice with metastases in vivo on week 12", "result": 3, "unit": "weeks"}, {"measurement": "Metastasis appearance, times faster in control group than in treated group", "setting": "[1]; mice with metastases in vivo on week 12, FIG. 10E", "result": "roughly 3 times"}, {"measurement": "Interaction with C16-PAF binding site of PAF receptor", "setting": "PAF receptor", "result": "unable to interact"}, {"measurement": "Inhibition of 125I-apamin binding", "setting": "SKCa channel", "result": "does not inhibit"}, {"measurement": "Toxicity", "setting": "MDA-MB-435s; Table 2, viability of MDA-MB-435s", "result": "No at 10 μM"}, {"measurement": "Effect on cell viability", "setting": "MDA-MB-435s; at 10 nM to 1 μM, FIG. 6B", "result": "no effect on cell viability"}, {"measurement": "Effect on MDA-MB-435s proliferation", "setting": "MDA-MB-435s; in vitro", "result": "no effect"}, {"measurement": "IC50", "setting": "MDA-MB-435s; read-out: Cytotoxicity IC50, Table 1", "result": "> 10", "unit": "µM"}, {"measurement": "Effect on SK2 channels", "setting": "SK2", "result": "inactive"}]}]}
